Source: patent US7750003B2, “Compounds-943” (AstraZeneca AB, priority 2006, dated 2010)

Molecular target: recombinant mTOR (FLAG-tagged, residues 1362-2549) (Homo sapiens, UniProt P42345)
Test: In vitro mTOR kinase assay (Test (a), AlphaScreen)
Type: biochemical
Settings: ATP 20 μM, read-out: Test (a): IC50 versus mTOR kinase
How it was run: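 AlphaScreen read-out: a phospho-T389 p70 S6K antibody on acceptor beads captures the phosphorylated biotin-peptide on donor beads, with signal loss indicating inhibition.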

recombinant mTOR (FLAG-tagged, residues 1362-2549), sequence (P42345 1362-2549): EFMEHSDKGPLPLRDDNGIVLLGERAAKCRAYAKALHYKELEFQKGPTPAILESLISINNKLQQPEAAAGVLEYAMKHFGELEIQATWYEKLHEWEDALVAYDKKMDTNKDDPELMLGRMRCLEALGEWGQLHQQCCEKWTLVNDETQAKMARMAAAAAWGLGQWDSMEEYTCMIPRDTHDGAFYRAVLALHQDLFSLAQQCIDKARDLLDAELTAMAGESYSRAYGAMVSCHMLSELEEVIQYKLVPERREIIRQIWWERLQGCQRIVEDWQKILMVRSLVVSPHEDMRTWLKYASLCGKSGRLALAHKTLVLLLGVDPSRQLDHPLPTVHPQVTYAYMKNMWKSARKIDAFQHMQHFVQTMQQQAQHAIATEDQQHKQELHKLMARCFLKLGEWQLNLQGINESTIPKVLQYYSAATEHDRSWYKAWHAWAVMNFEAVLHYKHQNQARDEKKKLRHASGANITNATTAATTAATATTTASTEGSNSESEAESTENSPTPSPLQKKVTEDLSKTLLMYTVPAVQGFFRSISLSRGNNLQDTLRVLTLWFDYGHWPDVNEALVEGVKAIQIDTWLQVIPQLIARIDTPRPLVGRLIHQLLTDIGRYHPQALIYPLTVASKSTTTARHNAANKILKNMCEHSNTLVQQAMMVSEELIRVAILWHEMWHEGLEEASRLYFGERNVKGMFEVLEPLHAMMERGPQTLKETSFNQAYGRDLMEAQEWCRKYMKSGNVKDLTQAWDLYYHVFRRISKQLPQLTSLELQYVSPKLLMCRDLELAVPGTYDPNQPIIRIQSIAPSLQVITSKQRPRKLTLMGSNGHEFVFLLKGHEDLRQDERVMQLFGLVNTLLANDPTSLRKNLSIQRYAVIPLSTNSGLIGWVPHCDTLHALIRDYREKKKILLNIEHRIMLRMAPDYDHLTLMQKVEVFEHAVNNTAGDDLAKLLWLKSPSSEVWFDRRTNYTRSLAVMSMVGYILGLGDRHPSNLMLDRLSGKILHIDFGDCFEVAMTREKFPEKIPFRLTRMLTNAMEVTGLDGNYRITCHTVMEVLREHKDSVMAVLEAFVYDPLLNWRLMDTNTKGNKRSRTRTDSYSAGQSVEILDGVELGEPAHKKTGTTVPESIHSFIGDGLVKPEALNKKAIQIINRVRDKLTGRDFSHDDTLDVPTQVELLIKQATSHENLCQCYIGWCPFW

SMILES | IC50 [nM]
C[C@H]1COCCN1c1cc(CS(C)(=O)=O)nc(-c2ccc(NC(=O)N3CCCC(O)C3)cc2)n1 (stereo partly drawn) [Example 35i, 3-hydroxy-N-[4-[4-[(3S)-3-methylmorpholin-4-yl]-6-(methylsulfonylmethyl)pyrimidin-2-yl]phenyl]piperidine-1-carboxamide] | 770
C[C@H]1COCCN1c1cc(CS(C)(=O)=O)nc(-c2ccc(NC(=O)N(C)CCN(C)C)cc2)n1 [Example 35j, 1-(2-dimethylaminoethyl)-1-methyl-3-[4-[4-[(3S)-3-methylmorpholin-4-yl]-6-(methylsulfonylmethyl)pyrimidin-2-yl]phenyl]urea] | 3600
C[C@H]1COCCN1c1cc(CS(C)(=O)=O)nc(-c2ccc(NC(=O)NCCN3CCOCC3)cc2)n1 [Example 35k, 1-[4-[4-[(3S)-3-methylmorpholin-4-yl]-6-(methylsulfonylmethyl)pyrimidin-2-yl]phenyl]-3-(2-morpholin-4-ylethyl)urea] | 1200
C[C@H]1COCCN1c1cc(CS(C)(=O)=O)nc(-c2ccc(NC(=O)NCc3ncc[nH]3)cc2)n1 [Example 35l, 3-(1H-imidazol-2-ylmethyl)-1-[4-[4-[(3S)-3-methylmorpholin-4-yl]-6-(methylsulfonylmethyl)pyrimidin-2-yl]phenyl]urea] | 470
C[C@H]1COCCN1c1cc(CS(C)(=O)=O)nc(-c2ccc(NC(=O)N(C)C3CC3)cc2)n1 [Example 35m, 1-cyclopropyl-1-methyl-3-[4-[4-[(3S)-3-methylmorpholin-4-yl]-6-(methylsulfonylmethyl)pyrimidin-2-yl]phenyl]urea] | 2000
C[C@H]1COCCN1C(=O)Nc1ccc(-c2nc(CS(C)(=O)=O)cc(N3CCOC[C@@H]3C)n2)cc1 [Example 35n, (3S)-3-methyl-N-[4-[4-[(3S)-3-methylmorpholin-4-yl]-6-(methylsulfonylmethyl)pyrimidin-2-yl]phenyl]morpholine-4-carboxamide] | 1100
C[C@H]1COCCN1C(=O)c1cc(N2CCOC[C@@H]2C)nc(-c2ccc(NC(=O)NC3CC3)cc2)n1 [Example 36, 3-Cyclopropyl-1-[4-[4-[(3S)-3-methylmorpholine-4-carbonyl]-6-[(3S)-3-methylmorpholin-4-yl]pyrimidin-2-yl]phenyl]urea] | 62
C[C@H]1COCCN1c1cc(C(=O)NC2CC2)nc(-c2ccc(NC(=O)NC3CC3)cc2)n1 [Example 36a, N-cyclopropyl-2-[4-(cyclopropylcarbamoylamino)phenyl]-6-[(3S)-3-methylmorpholin-4-yl]pyrimidine-4-carboxamide] | 2900
C[C@H]1COCCN1c1cc(C(=O)N2CCN(C)CC2)nc(-c2ccc(NC(=O)NC3CC3)cc2)n1 [Example 36b, 3-cyclopropyl-1-[4-[4-[(3S)-3-methylmorpholin-4-yl]-6-(4-methylpiperazine-1-carbonyl)pyrimidin-2-yl]phenyl]urea] | 180
C[C@H]1COCCN1c1cc(C(C)(C)O)nc(-c2ccc(NC(=O)NC3CC3)cc2)n1 [Example 37, 3-Cyclopropyl-1-[4-[4-(2-hydroxypropan-2-yl)-6-[(3S)-3-methylmorpholin-4-yl]pyrimidin-2-yl]phenyl]urea] | 51
C[C@H]1COCCN1c1cc(C(C)(C)O)nc(-c2ccc(NC(=O)NCc3cnn(C)c3)cc2)n1 [Example 38, 1-[4-[4-(2-Hydroxypropan-2-yl)-6-[(3S)-3-methylmorpholin-4-yl]pyrimidin-2-yl]phenyl]-3-[(1-methylpyrazol-4-yl)methyl]urea] | 1300
C[C@H]1COCCN1c1cc(CO)nc(-c2ccc(NC(=O)Nc3ccon3)cc2)n1 [Example 39, 1-[4-[4-(Hydroxymethyl)-6-[(3S)-3-methylmorpholin-4-yl]pyrimidin-2-yl]phenyl]-3-(1,2-oxazol-3-yl)urea] | 75
C[C@H]1COCCN1c1cc(CO)nc(-c2ccc(NC(=O)NC3CC3)cc2)n1 [Example 42, 3-Cyclopropyl-1-[4-[4-(hydroxymethyl)-6-[(3S)-3-methylmorpholin-4-yl]pyrimidin-2-yl]phenyl]urea] | 190
C[C@H]1COCCN1c1cc(CS(=O)(=O)c2ccncc2)nc(-c2ccc(NC(=O)NC3CC3)cc2)n1 [Example 43, 3-Cyclopropyl-1-[4-[4-[(3S)-3-methylmorpholin-4-yl]-6-(pyridin-4-ylsulfonylmethyl)pyrimidin-2-yl]phenyl]urea] | 76
CNC(=O)CS(=O)(=O)Cc1cc(N2CCOC[C@@H]2C)nc(-c2ccc(NC(=O)NC3CC3)cc2)n1 [Example 43a, 2-[[2-[4-(cyclopropylcarbamoylamino)phenyl]-6-[(3S)-3-methylmorpholin-4-yl]pyrimidin-4-yl]methylsulfonyl]-N-methyl-acetamide] | 87
C[C@H]1COCCN1c1cc(CS(=O)(=O)c2ccc(F)cc2)nc(-c2ccc(NC(=O)NC3CC3)cc2)n1 [Example 43b, 3-cyclopropyl-1-[4-[4-[(4-fluorophenyl)sulfonylmethyl]-6-[(3S)-3-methylmorpholin-4-yl]pyrimidin-2-yl]phenyl]urea] | 150

SMILES | IC50 [nM]
CC(=O)Nc1ccc(S(=O)(=O)Cc2cc(N3CCOC[C@@H]3C)nc(-c3ccc(NC(=O)NC4CC4)cc3)n2)cc1 [Example 43c, N-[4-[[2-[4-(cyclopropylcarbamoylamino)phenyl]-6-[(3S)-3-methylmorpholin-4-yl]pyrimidin-4-yl]methylsulfonyl]phenyl]acetamide] | 13
C[C@H]1COCCN1c1cc(CS(=O)(=O)CCO)nc(-c2ccc(NC(=O)NC3CC3)cc2)n1 [Example 43d, 3-cyclopropyl-1-[4-[4-(2-hydroxyethylsulfonylmethyl)-6-[(3S)-3-methylmorpholin-4-yl]pyrimidin-2-yl]phenyl]urea] | 11
C[C@H]1COCCN1c1cc(CS(=O)(=O)c2nccs2)nc(-c2ccc(NC(=O)NC3CC3)cc2)n1 [Example 43e, 3-cyclopropyl-1-[4-[4-[(3S)-3-methylmorpholin-4-yl]-6-(1,3-thiazol-2-ylsulfonylmethyl)pyrimidin-2-yl]phenyl]urea] | 130
C[C@H]1COCCN1c1cc(CS(=O)(=O)c2ccccc2C(F)(F)F)nc(-c2ccc(NC(=O)NC3CC3)cc2)n1 [Example 43f, 3-cyclopropyl-1-[4-[4-[(3S)-3-methylmorpholin-4-yl]-6-[[2-(trifluoromethyl)phenyl]sulfonylmethyl]pyrimidin-2-yl]phenyl]urea] | 110
C[C@H]1COCCN1c1cc(CS(=O)(=O)CC(N)=O)nc(-c2ccc(NC(=O)NC3CC3)cc2)n1 [Example 43h, 2-[[2-[4-(cyclopropylcarbamoylamino)phenyl]-6-[(3S)-3-methylmorpholin-4-yl]pyrimidin-4-yl]methylsulfonyl]acetamide] | 7.1
Cc1csc(S(=O)(=O)Cc2cc(N3CCOC[C@@H]3C)nc(-c3ccc(NC(=O)NC4CC4)cc3)n2)n1 [Example 43i, 3-cyclopropyl-1-[4-[4-[(3S)-3-methylmorpholin-4-yl]-6-[(4-methyl-1,3-thiazol-2-yl)sulfonylmethyl]pyrimidin-2-yl]phenyl]urea] | 58
CC(=O)NCCS(=O)(=O)Cc1cc(N2CCOC[C@@H]2C)nc(-c2ccc(NC(=O)NC3CC3)cc2)n1 [Example 43j, N-[2-[[2-[4-(cyclopropylcarbamoylamino)phenyl]-6-[(3S)-3-methylmorpholin-4-yl]pyrimidin-4-yl]methylsulfonyl]ethyl]acetamide] | 1800
CN(CCO)C(=O)Nc1ccc(-c2nc(CS(C)(=O)=O)cc(N3CCOCC3)n2)cc1 [Example 45, 1-(2-Hydroxyethyl)-1-methyl-3-[4-[4-(methylsulfonylmethyl)-6-morpholin-4-yl-pyrimidin-2-yl]phenyl]urea] | 660
CS(=O)(=O)Cc1cc(N2CCOCC2)nc(-c2ccc(NC(=O)N3CCCCC3)cc2)n1 [Example 45a, N-[4-[4-(methylsulfonylmethyl)-6-morpholin-4-yl-pyrimidin-2-yl]phenyl]piperidine-1-carboxamide] | 630
C[C@H]1COCCN1c1cc(CS(C)(=O)=O)nc(-c2ccc(NC(=O)N3CCC(N(C)C)CC3)cc2)n1 [Example 45ab, 4-dimethylamino-N-[4-[4-[(3S)-3-methylmorpholin-4-yl]-6-(methylsulfonylmethyl)pyrimidin-2-yl]phenyl]piperidine-1-carboxamide] | 390
CC(C)CNC(=O)Nc1ccc(-c2nc(CS(C)(=O)=O)cc(N3CCOCC3)n2)cc1 [Example 45b, 1-(2-methylpropyl)-3-[4-[4-(methylsulfonylmethyl)-6-morpholin-4-yl-pyrimidin-2-yl]phenyl]urea] | 120
COCCCNC(=O)Nc1ccc(-c2nc(CS(C)(=O)=O)cc(N3CCOCC3)n2)cc1 [Example 45c, 1-(3-methoxypropyl)-3-[4-[4-(methylsulfonylmethyl)-6-morpholin-4-yl-pyrimidin-2-yl]phenyl]urea] | 82
CN(C)CCCCNC(=O)Nc1ccc(-c2nc(CS(C)(=O)=O)cc(N3CCOCC3)n2)cc1 [Example 45d, 1-(4-dimethylaminobutyl)-3-[4-[4-(methylsulfonylmethyl)-6-morpholin-4-yl-pyrimidin-2-yl]phenyl]urea] | 560
CS(=O)(=O)Cc1cc(N2CCOCC2)nc(-c2ccc(NC(=O)NCCN3CCNC3=O)cc2)n1 [Example 45e, 1-[4-[4-(methylsulfonylmethyl)-6-morpholin-4-yl-pyrimidin-2-yl]phenyl]-3-[2-(2-oxoimidazolidin-1-yl)ethyl]urea] | 560
CS(=O)(=O)Cc1cc(N2CCOCC2)nc(-c2ccc(NC(=O)N3CCCC3)cc2)n1 [Example 45f, N-[4-[4-(methylsulfonylmethyl)-6-morpholin-4-yl-pyrimidin-2-yl]phenyl]pyrrolidine-1-carboxamide] | 1600
CS(=O)(=O)Cc1cc(N2CCOCC2)nc(-c2ccc(NC(=O)N3CCOCC3)cc2)n1 [Example 45g, N-[4-[4-(methylsulfonylmethyl)-6-morpholin-4-yl-pyrimidin-2-yl]phenyl]morpholine-4-carboxamide] | 41
